From patent US20210254056A1, “IDENTIFICATION AND TARGETED MODULATION OF GENE SIGNALING NETWORKS” (CAMP4 THERAPEUTICS CORPORATION, priority 2017, published 2021)

System: hepatocytes
Experiment: RNA-seq of hepatocytes treated with Phase III failure compounds
Details: hepatocytes
Protocol: RNA-seq was performed to determine the effects of the compounds on hepatocytes.
Significance was determined by the criteria of FPKM≥0.5, a log 2(fold-change)≥1, and a […].

SMILES: COc1nc(N)nc2c1ncn2[C@@H]1O[C@H](COP(=O)(N[C@@H](C)C(=O)OCC(C)(C)C)Oc2cccc3ccccc23)[C@@H](O)[C@@]1(C)O (some centres unmarked) [Bms-986094 (inx-189), Bms-986094]
- significant modulation of expression of disease genes (RNA-seq, q≤0.05, genes in the value or listed in the block): significantly (q≤0.05) modulate expression
- A1BG expression, RNA-seq result (gene A1BG): −0.1
- AARS2 expression, RNA-seq result (gene AARS2): 0.13
- AASS expression, RNA-seq result (gene AASS): −0.77
- ABAT expression, RNA-seq result (gene ABAT): −1.42
- ABCA1 expression, RNA-seq result (gene ABCA1): −0.43
- ABCB4 expression, RNA-seq result (gene ABCB4): −0.43
- ABCB11 expression, RNA-seq result (gene ABCB11): −0.76
- ABCC2 expression, RNA-seq result (gene ABCC2): −1.34
- ABCC3 expression, RNA-seq result (gene ABCC3): −0.96
- ABCC6 expression, RNA-seq result (gene ABCC6): −1.45
- ABCD1 expression, RNA-seq result (gene ABCD1): 0.08
- ABCD3 expression, RNA-seq result (gene ABCD3): −0.4
- ABCG5 expression, RNA-seq result (gene ABCG5): −0.11
- ABCG8 expression, RNA-seq result (gene ABCG8): −0.11
- ABHD5 expression, RNA-seq result (gene ABHD5): 0.25
- ACACA expression, RNA-seq result (gene ACACA): −2.09
- ACACB expression, RNA-seq result (gene ACACB): −1.86
- ACAD9 expression, RNA-seq result (gene ACAD9): −0.83
- ACADSB expression, RNA-seq result (gene ACADSB): −0.04
- ACADVL expression, RNA-seq result (gene ACADVL): 0.11
- ACOT8 expression, RNA-seq result (gene ACOT8): −0.33
- ACOX2 expression, RNA-seq result (gene ACOX2): −0.97
- ACOX3 expression, RNA-seq result (gene ACOX3): −1.75
- ACSF3 expression, RNA-seq result (gene ACSF3): −0.6
- ACSL1 expression, RNA-seq result (gene ACSL1): −0.12
- ACSL3 expression, RNA-seq result (gene ACSL3): 0.16
- ACTG2 expression, RNA-seq result (gene ACTG2): −0.13
- ACTN1 expression, RNA-seq result (gene ACTN1): −2.21
- ADA expression, RNA-seq result (gene ADA): −0.72
- ADCK3 expression, RNA-seq result (gene ADCK3): 0.18
- ADK expression, RNA-seq result (gene ADK): −1.7
- ADSL expression, RNA-seq result (gene ADSL): −0.96
- AFP expression, RNA-seq result (gene AFP): −0.16
- AGK expression, RNA-seq result (gene AGK): −0.43
- AGL expression, RNA-seq result (gene AGL): −0.97
- AGPAT2 expression, RNA-seq result (gene AGPAT2): −1.09
- AGPS expression, RNA-seq result (gene AGPS): −1.61
- AGT expression, RNA-seq result (gene AGT): 0.27
- AGTR1 expression, RNA-seq result (gene AGTR1): −0.07
- AGXT expression, RNA-seq result (gene AGXT): −0.66
- AHI1 expression, RNA-seq result (gene AHI1): −0.61
- AHSG expression, RNA-seq result (gene AHSG): −0.32
- AK1 expression, RNA-seq result (gene AK1): 0.62
- AKR1C1 expression, RNA-seq result (gene AKR1C1): −0.96
- AKR1C2 expression, RNA-seq result (gene AKR1C2): −1.2
- AKR1C4 expression, RNA-seq result (gene AKR1C4): −1.68
- AKR1D1 expression, RNA-seq result (gene AKR1D1): 0.17
- ALAD expression, RNA-seq result (gene ALAD): −0.69
- ALAS1 expression, RNA-seq result (gene ALAS1): 0.11
- ALDH1B1 expression, RNA-seq result (gene ALDH1B1): −0.86
- ALDH2 expression, RNA-seq result (gene ALDH2): −0.04
- ALDH6A1 expression, RNA-seq result (gene ALDH6A1): −0.08
- ALDOA expression, RNA-seq result (gene ALDOA): −0.48
- ALDOB expression, RNA-seq result (gene ALDOB): −0.27
- ALG12 expression, RNA-seq result (gene ALG12): −0.76
- ALMS1 expression, RNA-seq result (gene ALMS1): −1.35
- ALPL expression, RNA-seq result (gene ALPL): −1.05
- AMACR expression, RNA-seq result (gene AMACR): 0.28
- AMPD3 expression, RNA-seq result (gene AMPD3): 0.57
- AMT expression, RNA-seq result (gene AMT): −0.61
- ANGPTL3 expression, RNA-seq result (gene ANGPTL3): −0.73
- ANKS4B expression, RNA-seq result (gene ANKS4B): −0.39
- ANKS6 expression, RNA-seq result (gene ANKS6): −0.13
- ANPEP expression, RNA-seq result (gene ANPEP): −0.47
- AOC2 expression, RNA-seq result (gene AOC2): 0.32
- AP3B1 expression, RNA-seq result (gene AP3B1): −1.36
- APC expression, RNA-seq result (gene APC): −0.04
- APOA1 expression, RNA-seq result (gene APOA1): −0.05
- APOA2 expression, RNA-seq result (gene APOA2): 0.31
- APOA5 expression, RNA-seq result (gene APOA5): −0.18
- APOB expression, RNA-seq result (gene APOB): −0.78
- APOC2 expression, RNA-seq result (gene APOC2): 0
- APOC3 expression, RNA-seq result (gene APOC3): 0.42
- APOE expression, RNA-seq result (gene APOE): −0.56
- APRT expression, RNA-seq result (gene APRT): −0.42
- AQP7 expression, RNA-seq result (gene AQP7): −0.35
- AQP9 expression, RNA-seq result (gene AQP9): −0.05
- ARG1 expression, RNA-seq result (gene ARG1): −1.7
- ARG2 expression, RNA-seq result (gene ARG2): 0.62
- ARL13B expression, RNA-seq result (gene ARL13B): −0.67
- ARSA expression, RNA-seq result (gene ARSA): 0.27
- ARSB expression, RNA-seq result (gene ARSB): −0.25
- ASL expression, RNA-seq result (gene ASL): −0.24
- ASNS expression, RNA-seq result (gene ASNS): 1.61
- ASPA expression, RNA-seq result (gene ASPA): 1.55
- ASXL1 expression, RNA-seq result (gene ASXL1): −1.04
- ATG7 expression, RNA-seq result (gene ATG7): −1.54
- ATIC expression, RNA-seq result (gene ATIC): −0.74
- ATM expression, RNA-seq result (gene ATM): −0.5
- ATP7A expression, RNA-seq result (gene ATP7A): −0.03
- ATP7B expression, RNA-seq result (gene ATP7B): −0.8
- ATP8B1 expression, RNA-seq result (gene ATP8B1): −2.3
- B2M expression, RNA-seq result (gene B2M): 0.23
- B9D2 expression, RNA-seq result (gene B9D2): −0.83
- BAAT expression, RNA-seq result (gene BAAT): −1.93
- BBOX1 expression, RNA-seq result (gene BBOX1): −0.77
- BBS10 expression, RNA-seq result (gene BBS10): 0.59
- BCHE expression, RNA-seq result (gene BCHE): −0.67
- BCKDHB expression, RNA-seq result (gene BCKDHB): −1.21
- BCKDK expression, RNA-seq result (gene BCKDK): −0.42
- BCO1 expression, RNA-seq result (gene BCO1): 0.72
- BCR expression, RNA-seq result (gene BCR): −1.54
- BLNK expression, RNA-seq result (gene BLNK): 1.31
- BLOC1S3 expression, RNA-seq result (gene BLOC1S3): 0.01
- BMPR1A expression, RNA-seq result (gene BMPR1A): −0.9
- BRAF expression, RNA-seq result (gene BRAF): −0.44
- BSCL2 expression, RNA-seq result (gene BSCL2): 0.07
- BTD expression, RNA-seq result (gene BTD): −0.53
- C4A expression, RNA-seq result (gene C4A): 0.29
- C9 expression, RNA-seq result (gene C9): 0.55
- C10orf10 expression, RNA-seq result (gene C10orf10): 0.23
- C10orf11 expression, RNA-seq result (gene C10orf11): −2.08
- C15orf41 expression, RNA-seq result (gene C15orf41): −1.68
- CA2 expression, RNA-seq result (gene CA2): 0.9
- CA5A expression, RNA-seq result (gene CA5A): −1.34
- CA12 expression, RNA-seq result (gene CA12): 0.58
- CAV1 expression, RNA-seq result (gene CAV1): −0.74
- CCND1 expression, RNA-seq result (gene CCND1): −0.78
- CD46 expression, RNA-seq result (gene CD46): 0.43
- CD81 expression, RNA-seq result (gene CD81): 0.03
- CD320 expression, RNA-seq result (gene CD320): −0.96
- CDAN1 expression, RNA-seq result (gene CDAN1): 0.38
- CDH1 expression, RNA-seq result (gene CDH1): −1.79
- CEP19 expression, RNA-seq result (gene CEP19): −0.28
- CEP83 expression, RNA-seq result (gene CEP83): −0.39
- CEP164 expression, RNA-seq result (gene CEP164): 0.23
- CEP290 expression, RNA-seq result (gene CEP290): 0.21
- CFB expression, RNA-seq result (gene CFB): 0.29
- CFHR2 expression, RNA-seq result (gene CFHR2): 0.7
- CHRM3 expression, RNA-seq result (gene CHRM3): −2.02
- CIDEC expression, RNA-seq result (gene CIDEC): −0.6
- CLDN1 expression, RNA-seq result (gene CLDN1): −0.83
- COG1 expression, RNA-seq result (gene COG1): 0.5
